In patent US10399966B2, “Compounds for treatment of trypanosomes and neurological pathogens and uses thereof” (The University of North Carolina at Chapel Hill, priority 2016, dated 2019):
Where “and” joins values, the source holds several entries; their conditions need not be identical. Identical values can stand only once. Like-named read-outs stand apart in the source and are kept apart here.

What was measured:
T. b. brucei = experiment: In vitro antitrypanosomal activity against T. brucei (growth inhibition); format: cell-based, Trypanosoma brucei
Method in brief: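 Dose-response EC50 against T. brucei parasites with 0.4% DMSO final, 48 h at 37 °C; parasite density quantified by ATP luminescence (CellTiter-Glo).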

Trypanosoma cruzi = experiment: Efficacy against T. cruzi in vitro; format: cell-based
[1] = Distribution between mouse plasma and brain (brain penetration, ip); format: in vivo
Method in brief: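 Mice (n=3) received a single 5 mg/kg ip dose in 7% Tween 80, 3% ethanol, 5% DMSO, 0.9% saline and were sacrificed 1 h post-dose. Plasma and acetonitrile brain homogenates analysed by LC/MS/MS; brain concentration corrected for 2.5% vasculature volume, assuming 1 g = 1 mL.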

[2] = Mouse oral pharmacokinetics; format: in vivo
Method: […] Experiments were performed with groups of three mice per compound. Plasma was separated and extracted with acetonitrile for measurements of compound concentrations by liquid chromatography/tandem mass spectrometry.

[3] = Rat pharmacokinetics, oral administration; format: in vivo; set-up: AUC(0-inf): unit not given here; conditions: 20 mg/kg; for AUC(0-inf) / Cmax / Tmax: rat, in vivo, po
Method: The pharmacokinetics of compound 1 was tested in rats after intravenous and oral administration. Two rats were administered 5 mg/kg compound 1 intravenously in a vehicle consisting of 7% Tween 80, 3% EtOH, 5% DMSO in saline. Two rats were administered 20 mg/kg compound 1 orally in a vehicle consisting of 5% DMSO, 0.5% Tween 80, 1% methylcellulose in water. The results are shown in Table 4 and FIGS. 3A-3B and 4A-4B.

[4] = tested on: T. b. rhodesiense STIB900; experiment: Mouse efficacy model of acute T. brucei infection; format: in vivo; conditions: 50 mg/kg po b.i.d. x 4 days from day 2, no detectable parasitemia 60 days post-infection
Method: For acute efficacy studies in mice, experiments were carried out using the standard operating procedure used by WHO screening centers and done in compliance with the University of Washington Institutional Animal Care and Use Committee (IACUC) approved protocol. […] The test compound was administered by oral gavage at 50 mg/kg every 12 h from day 2 to day 5, for a total of 8 doses in a 200 μL volume of a vehicle consisting of DMSO (5%), Tween 80 (7%), and EtOH (3%) in physiological saline (0.9%) solution. Parasitemia was monitored via microscopic analysis of tail blood for 60 d post-infection, or until parasites were detected. Mice were removed from the experiment once parasites were detected in the blood. […] Efficacy PK blood samples were collected from three of the five mice prior to dose 7, and at 1 h and 6 h post-dose.

[5] = Brain and plasma time-course after oral dosing; format: in vivo, mouse
Method: The brain and plasma concentrations of compound 1 were studied in a time-course experiment following oral dosing at 50 mg/kg (Table 15). […] At 24 h, the plasma concentrations are undetectable and brain levels are down to sub-micromolar concentrations. Compared to the previous experiment (Table 14), the BPR ratio for 1 is lower at 1 h post-dose (1.48 vs. 4.0) probably due to the oral route of administration (as opposed to the ip route used before) leading to slower systemic absorption and distribution.

[6] = tested on: human lymphocytes CRL-8155; experiment: Cytotoxicity against CRL-8155 cells
Method: The selectivity of each compound for the parasite over each of the two cell lines was calculated.

[7] = Table 14, mice, single ip dose 5 mg/kg, one hour post-dose, ± SEM of 3 mice (compound 3: 6 mice)
[8] = single oral dose 50 mg/kg, mice, 1 h
[9] = single oral dose 50 mg/kg, mice, 4 h
[10] = single oral dose 50 mg/kg, mice, 8 h

SMILES: O=C(Nc1ccc2sc(-c3ccc(F)c(F)c3)nc2c1)N1CC[C@H](F)C1 [Compound 1, (S)-2-(3,4-Difluorophenyl)-5-(3-fluoro-N-pyrrolidylamido)benzothiazole]
- EC90 (T. b. brucei; Table 1, Trypanosoma brucei, read-out: EC90): 54.8 nM
- EC50 (T. b. brucei; Trypanosoma brucei, Table 1, Trypanosoma brucei, read-out: EC50): 34.8 nM
- EC50 (T. b. brucei; Trypanosoma brucei, Table 6, read-out: T. brucei EC50): 34.8 nM
- EC50 (T. b. brucei; Trypanosoma brucei, Table 8, read-out: T. brucei EC50): 34.8 nM
- EC50 (T. b. brucei; Trypanosoma brucei, Table 11, read-out: T. b. brucei EC50): 34.8 nM
- EC50 (T. b. brucei; Trypanosoma brucei, Table 12, read-out: T. b. brucei EC50): 34.8 nM
- EC50 (T. b. brucei; Trypanosoma brucei, Table 9, read-out: T. brucei EC50): 34.8 nM
- EC90 (T. b. brucei; Trypanosoma brucei, Table 9, read-out: T. brucei EC90): 54.8 nM
- EC50 (Trypanosoma cruzi; Table 1, Trypanosoma cruzi, read-out: EC50): 118 nM
- EC90 (Trypanosoma cruzi; Table 1, Trypanosoma cruzi, read-out: EC90): 178 nM
- EC50 (Trypanosoma cruzi; Trypanosoma cruzi, Table 6, read-out: T. cruzi EC50): 58.5 nM
- EC50 (Trypanosoma cruzi; Trypanosoma cruzi, Table 10, read-out: T.cruzi EC50): 118 nM
- EC90 (Trypanosoma cruzi; Trypanosoma cruzi, Table 10, read-out: T.cruzi EC90): 178 nM
- Average brain/plasma ratio ([1]; Table 2, mouse, n = 3): 4.0000 ± 0.624
- Average [compound] brain ([1]; Table 8, groups of 3 mice (compound 3: ± SEM of 6 mice)): 9.07 ± 6.88 µM
- Brain/plasma ratio ([1]; Table 14, mice, single ip dose 5 mg/kg, one hour post-dose): 4.0
- [compound]Brain [1, 7]: 9.07 ± 3.973 µM
- [compound]Plasma [1, 7]: 2.27 ± 0.888 µM
- concentration at 1 h ([1]; mouse, in vivo, 5 mg/kg, Table 2, mouse, n = 3, read-out: Average concentration in brain): 9.07 ± 6.88 µM
- concentration at 1 h ([1]; mouse, in vivo, 5 mg/kg, Table 2, mouse, n = 3, read-out: Average concentration in plasma): 2.27 ± 1.54 µM
- concentration at 60 min ([1]; mouse, in vivo, 5 mg/kg, Table 5 r15, mouse brain penetration (60 min), n = 3): 2.27 ± 1.54 µM
- concentration at 1 h ([1]; mouse, in vivo, 5 mg/kg, Table 8, groups of 3 mice (compound 3: ± SEM of 6 mice), read-out: Average [compound] plasma): 2.27 ± 1.54 µM
- Mouse oral PK Tlast ([2]; Table 5): 1440 min
- Mouse oral PK Average AUC ([2]; Table 5, n = 3): 13217 ± 2156 (n = 3) min * μmol/L
- AUC0 min-∞ ([2]; Table 13, mice, single 50 mg/kg oral gavage, vehicle Phosal 53 MCT(60%), PEG400 (30%), EtOH (10%)): 14673 ± 2833 µM·min
- Cmax ([2]; Table 13, mice, single 50 mg/kg oral gavage, vehicle Phosal 53 MCT(60%), PEG400 (30%), EtOH (10%), read-out: Cmax): 18.6 ± 5.54 µM
- Cmax ([2]; Table 13, mice, single 50 mg/kg oral gavage, vehicle Tween 80 (7%), EtOH (3%), DMSO (5%) in 0.9% NaCl, ± SEM of 3 mice, 50 mg/kg, read-out: Cmax): 23.3 µM
- AUC0 min-∞ ([2]; Table 13, mice, single 50 mg/kg oral gavage, vehicle methylcellulose cP 400 (0.5%), Tween 80 (0.5%) in water): 6352 ± 469 µM·min
- Cmax ([2]; Table 13, mice, single 50 mg/kg oral gavage, vehicle methylcellulose cP 400 (0.5%), Tween 80 (0.5%) in water, read-out: Cmax): 8.54 ± 0.41 µM
- percent of the Cmax remaining ([2]; mouse oral 50 mg/kg, 24 h time point): Less than 1%
- Cmax ([2]; mouse, plasma, po, 50 mg/kg, Table 5, n = 3, read-out: Mouse oral PK Average Cmax): 23.3 ± 5.22 µM
- Tmax ([2]; mouse, plasma, po, 50 mg/kg, Table 5, read-out: Mouse oral PK Tmax (converted)): 2 h
- Apparent BA ([3]; Mean ± SEM (n = 2)): 116.85%
- Apparent BA ([3]; Rat 3): 110.29%
- Apparent BA ([3]; Rat 4): 123.40%
- AUC(0-inf) ([3]; Mean ± SEM (n = 2)): 6270
- Cmax ([3]; Mean ± SEM (n = 2)): 8.92 µM
- Tmax ([3]; Mean ± SEM (n = 2)): 7 h
- AUC(0-inf) ([3]; Rat 3): 5770
- Cmax ([3]; Rat 3): 7.31 µM
- Tmax ([3]; Rat 3): 8 h
- AUC(0-inf) ([3]; Rat 4): 6770
- Cmax ([3]; Rat 4): 10.5 µM
- Tmax ([3]; Rat 4): 6 h
- mice cured (cures) [4]: 5 of 5 and 5/5
- AUC0 min-∞, brain ([5]; mouse, in vivo, po, 50 mg/kg): 43116.8 ± 2304 µM·min
- AUC0 min-∞, plasma ([5]; mouse, in vivo, po, 50 mg/kg): 10798 ± 1975 µM·min
- [compd]Brain ([5]; mouse, in vivo, po, 50 mg/kg): sub-micromolar
- Brain/plasma ratio [5, 8]: 1.48
- [compd]Brain [5, 8]: 38.23 ± 13.51 µM
- [compd]Plasma [5, 8]: 27.14 ± 9.91 µM
- Brain/plasma ratio [5, 9]: 4.43
- [compd]Brain [5, 9]: 45.2 ± 10.4 µM
- [compd]Plasma [5, 9]: 10.25 ± 2.21 µM
- Brain/plasma ratio [5, 10]: 5.48
- [compd]Brain [5, 10]: 48.08 ± 2.47 µM
- [compd]Plasma [5, 10]: 8.97 ± 1.05 µM
- toxicity to the CRL-8155 cells (in words) [6]: no detectable toxicity
- EC50 ([6]; read-out: CRL-8155 EC50, concentration required to inhibit growth by 50%, human lymphoblasts): > 50000 nM
- EC90 ([6]; read-out: CRL-8155 EC90, concentration required to inhibit growth by 90%, human lymphoblasts): > 50000 nM
